Assay results published in patent publication US8324245B2, “Quinoline derivative and quinazoline derivative inhibiting self-phosphorylation of hepatocytus proliferator receptor, and medicinal composition containing the same” (Kyowa Hakko Kirin Co., Ltd., priority 2001, dated 2012).

biological target: T1, met (HGF receptor) in human gastric cancer cells MKN45 (Homo sapiens, UniProt P08581); test: Inhibitory activity against met-autophosphorylation using ELISA method (2), MKN45 cells, HGF-independent; assay type: cell-based
T1 construct: endogenous in cells; host or cells: MKN45 human gastric cancer cells
Summary of the method: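 MKN45 cells, 3×10^4 per well in RPMI with 0.1% FCS overnight, were exposed to compound in DMSO for 1 h at 37 °C without HGF. Lysates were captured on anti-phosphotyrosine (PY20) plates, Met detected with anti-Met and peroxidase secondary antibody, absorbance at 450 nm.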

T1 sequence (P08581 25-1390): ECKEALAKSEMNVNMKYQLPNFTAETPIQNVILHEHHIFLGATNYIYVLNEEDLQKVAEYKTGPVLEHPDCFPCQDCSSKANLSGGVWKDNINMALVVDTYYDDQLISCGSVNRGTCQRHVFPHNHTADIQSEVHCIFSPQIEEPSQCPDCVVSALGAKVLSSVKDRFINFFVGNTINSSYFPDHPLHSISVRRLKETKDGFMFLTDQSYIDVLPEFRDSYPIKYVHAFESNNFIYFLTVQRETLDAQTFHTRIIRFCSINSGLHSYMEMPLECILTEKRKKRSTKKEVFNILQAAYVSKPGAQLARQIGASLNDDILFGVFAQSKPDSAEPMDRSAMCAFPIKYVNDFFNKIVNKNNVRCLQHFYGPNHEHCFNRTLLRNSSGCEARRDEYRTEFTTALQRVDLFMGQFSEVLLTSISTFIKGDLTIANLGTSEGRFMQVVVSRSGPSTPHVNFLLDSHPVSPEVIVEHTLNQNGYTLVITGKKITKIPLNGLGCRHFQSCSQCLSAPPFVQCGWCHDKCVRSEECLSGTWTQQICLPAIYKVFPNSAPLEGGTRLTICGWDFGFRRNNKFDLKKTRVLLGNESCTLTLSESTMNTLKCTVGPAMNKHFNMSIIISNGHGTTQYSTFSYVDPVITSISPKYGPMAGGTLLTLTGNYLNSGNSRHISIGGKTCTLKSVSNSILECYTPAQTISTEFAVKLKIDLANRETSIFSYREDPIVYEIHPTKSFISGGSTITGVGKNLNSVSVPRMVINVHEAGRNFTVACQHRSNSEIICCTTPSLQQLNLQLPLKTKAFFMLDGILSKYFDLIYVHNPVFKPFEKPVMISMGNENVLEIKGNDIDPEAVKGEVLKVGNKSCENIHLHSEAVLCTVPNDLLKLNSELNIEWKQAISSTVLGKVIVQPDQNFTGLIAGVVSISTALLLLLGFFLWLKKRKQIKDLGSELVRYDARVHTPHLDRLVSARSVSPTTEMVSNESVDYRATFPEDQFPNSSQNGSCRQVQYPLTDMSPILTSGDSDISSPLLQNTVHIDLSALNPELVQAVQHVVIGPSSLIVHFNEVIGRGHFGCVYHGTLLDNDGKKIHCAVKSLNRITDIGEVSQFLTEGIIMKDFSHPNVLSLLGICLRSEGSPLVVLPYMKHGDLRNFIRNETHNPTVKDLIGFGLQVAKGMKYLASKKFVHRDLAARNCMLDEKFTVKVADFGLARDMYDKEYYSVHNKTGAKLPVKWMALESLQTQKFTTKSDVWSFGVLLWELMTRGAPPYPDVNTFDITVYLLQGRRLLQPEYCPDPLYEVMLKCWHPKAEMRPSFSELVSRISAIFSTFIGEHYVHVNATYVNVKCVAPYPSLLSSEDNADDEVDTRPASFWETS

Structure (SMILES) | IC50
COc1cc2c(Oc3ccc(NC(=O)NC(=O)Cc4ccc(F)cc4)cc3F)ccnc2cc1OCCCCN1CCOCC1 [Example 41, 1-{3-fluoro-4-[6-methoxy-7-(4-morpholin-4-yl-butoxy)quinolin-4-yloxy]phenyl}-3-[2-(4-fluorophenyl)-acetyl]urea] | 281 nM
COc1cc2nccc(Oc3ccc(NC(=S)NC(=O)Cc4ccc(Cl)cc4)cc3Cl)c2cc1OC [Example 189, 1-[3-chloro-4-(6,7-dimethoxyquinolin-4-yloxy)phenyl]-3-[2-(4-chlorophenyl)acetyl]thiourea] | 232 nM
COc1cc2nccc(Oc3ccc(NC(=O)NC(=O)Cc4ccsc4)cc3F)c2cc1OC [Example 20, 1-[4-(6,7-dimethoxyquinolin-4-yloxy)-3-fluoro-phenyl]-3-(2-thiophen-3-ylacetyl)urea] | 31.8 nM
COc1cc2nccc(Oc3ccc(NC(=S)NC(=O)C4CCCC4)c(F)c3)c2cc1OC [Example 143, 1-cyclopentanecarbonyl-3-[4-(6,7-dimethoxy-quinolin-4-yloxy)-2-fluorophenyl]thiourea] | 3590 nM
COc1cc2nccc(Oc3ccc(NC(=O)NC(=O)Cn4ccnn4)cc3Cl)c2cc1OC [Example 123, 1-[3-chloro-4-(6,7-dimethoxyquinolin-4-yloxy)phenyl]-3-(2-[1,2,3]triazol-1-ylacetyl)urea] | 2010 nM
COc1cc2c(Oc3ccc(NC(=O)NC(=O)Cc4ccc(F)cc4)c(F)c3)ccnc2cc1OCc1ccccc1 [Example 40, N-(4-{[7-(Benzyloxy)-6-methoxy-4-quinolyl]oxy}-2-fluorophenyl)-N′-[2-(4-fluorophenyl)acetyl]urea] | 242 nM
COc1cc2nccc(Oc3ccc(NC(=O)NC(=O)Cc4cc(F)ccc4F)cc3F)c2cc1OC [Example 133, 1-[2-(2,5-difluorophenyl)acetyl]-3-[4-(6,7-dimethoxyquinolin-4-yloxy)-3-fluorophenyl]urea] | 261 nM
COc1cc2c(Oc3ccc(NC(=O)NC(=O)Cc4ccc(F)cc4)cc3F)ccnc2cc1OCCN1CCCCC1 [Example 48, 1-{3-fluoro-4-[6-methoxy-7-(2-piperidin-1-yl-ethoxy)quinolin-4-yloxy]phenyl}-3-[2-(4-fluorophenyl)-acetyl]urea] | 224 nM
COc1cc2nccc(Oc3ccc(NC(=O)NC(=O)Cc4cccs4)c(F)c3)c2cc1OC [Example 30, 1-[4-(6,7-dimethoxyquinolin-4-yloxy)-2-fluoro-phenyl]-3-(2-thiophen-2-ylacetyl)urea] | 35.1 nM
COc1cc2c(Oc3ccc(NC(=S)NC(=O)Cc4ccccc4)cc3F)ccnc2cc1OCCN1CCC(CO)CC1 [Example 284, 1-(3-Fluoro-4-{7-[2-(4-hydroxymethyl-piperidin-1-yl)-ethoxy]-6-methoxy-quinolin-4-yloxy}-phenyl)-3-phenylacetyl-thiourea] | 15 nM
COc1cc2nccc(Oc3ccc(NC(=O)NC(=O)Cc4ccsc4)cc3Cl)c2cc1OC [Example 21, 1-[3-chloro-4-(6,7-dimethoxyquinolin-4-yloxy)-phenyl]-3-(2-thiophen-3-ylacetyl)urea] | 188 nM
COc1cc2c(Oc3ccc(NC(=S)NC(=O)Cc4ccccc4)cc3F)ccnc2cc1OCCN1CCN(C)CC1 [Example 270, 1-(3-Fluoro-4-{6-methoxy-7-[2-(4-methyl-piperazin-1-yl)-ethoxy]-quinolin-4-yloxy}-phenyl)-3-phenylacetyl-thiourea] | 26.7 nM
CCOCCC(=O)NC(=S)Nc1ccc(Oc2ccnc3cc(OC)c(OC)cc23)c(Cl)c1 [Example 159, 1-[3-chloro-4-(6,7-dimethoxyquinolin-4-yloxy)phenyl]-3-(3-ethoxypropionyl)thiourea] | 585 nM
COc1cc2c(Oc3ccc(NC(=O)NC(=O)Cc4ccccc4)cc3F)ccnc2cc1OCCCN1CCCC1 [Example 292, 1-{3-Fluoro-4-[6-methoxy-7-(3-pyrrolidin-1-yl-propoxy)-quinolin-4-yloxy]-phenyl}-3-phenylacetyl-urea] | 20.3 nM
COc1cc2nccc(Oc3ccc(NC(=S)NC(=O)Cc4ccccc4Cl)c(F)c3)c2cc1OC [Example 182, 1-[2-(2-chlorophenyl)acetyl]-3-[4-(6,7-dimethoxyquinolin-4-yloxy)-2-fluorophenyl]thiourea] | 256 nM
COc1cc2nccc(Oc3ccc(NC(=O)NC(=O)CN4CCc5ccccc54)cc3Cl)c2cc1OC [Example 8, 1-[3-chloro-4-(6,7-dimethoxyquinolin-4-yloxy)-phenyl]-3-[2-(2,3-dihydro-1H-1-indol-1-yl)acetyl]-urea] | 298 nM
COc1cc2nccc(Oc3ccc(NC(=S)NC(=O)CC4C5CCC4CC5)cc3F)c2cc1OC (stereo not shown) [Example 90, 1-(2-bicyclo[2.2.1]hepto-7-ylacetyl)-3-[4-(6,7-dimethoxyquinolin-4-yloxy)-3-fluorophenyl]thiourea] | 28.1 nM
COc1cc2c(Oc3ccc(NC(=O)NC(=O)Cc4ccccc4)cc3F)ccnc2cc1OCCCn1ccnc1 [Example 305, 1-{3-Fluoro-4-[7-(3-imidazol-1-yl-propoxy)-6-methoxy-quinolin-4-yloxy]-phenyl}-3-phenylacetyl-urea] | 21.4 nM
COc1cc2c(Oc3ccc(NC(=O)NC(=O)Cc4ccc(F)cc4)c(F)c3)ccnc2cc1OCCCN1CCN(C)CC1 [Example 51, 1-(2-fluoro-4-{6-methoxy-7-[3-(4-methyl-piperazin-1-yl)-propoxy]quinolin-4-yloxy}phenyl)-3-[2-(4-fluorophenyl)acetyl]urea] | 203 nM
CCN(CC)CC(=O)NC(=O)Nc1ccc(Oc2ccnc3cc(OC)c(OC)cc23)c(Cl)c1 [Example 110, 1-[3-chloro-4-(6,7-dimethoxyquinolin-4-yloxy)phenyl]-3-(2-diethylaminoacetyl)urea] | 2380 nM
COc1cc2nccc(Oc3ccc(NC(=S)NC(=O)Cc4cccc(C)c4)cc3F)c2cc1OC [Example 176, 1-[4-(6,7-dimethoxyquinolin-4-yloxy)-3-fluorophenyl]-3-(2-m-tolylacetyl)thiourea] | 221 nM
COc1cc2nccc(Oc3ccc(NC(=O)CC(=O)Nc4ccc(F)cc4F)cc3F)c2cc1OC [Example 99, N-(2,4-difluorophenyl)-N′-[4-(6,7-dimethoxy-quinolin-4-yloxy)-3-fluorophenyl]malonamide] | 25.6 nM

Continued, values first:

IC50 | Structure (SMILES)
269 nM | COc1cc2nccc(Oc3ccc(NC(=O)NC(=O)Nc4cccc5ncccc45)cc3)c2cc1OC [Example 262, N-(5-quinolyl)-({[4-(6,7-dimethoxyquinolin-4-yloxy)anilino]carbonyl}amino)methanamide]
194 nM | COc1cc2nccc(Oc3ccc(NC(=S)NC(=O)Cc4ccccc4)cc3OC)c2cc1OC [Example 68, 1-[4-(6,7-dimethoxyquinolin-4-yloxy)-3-methoxyphenyl]-3-phenylacetylthiourea]
457 nM | COc1cc2nccc(Oc3ccc(NC(=O)NC(=O)Nc4cccc(C)n4)cc3)c2cc1OC [Example 234, N-(6-methyl-2-pyridyl)-({[4-(6,7-dimethoxy-quinolin-4-yloxy)anilino]carbonyl}amino)methanamide]
18.9 nM | COc1cc2nccc(Oc3ccc(NC(=O)CC(=O)Nc4ccc(F)cc4)cc3)c2cc1OC [Example 5, N-[4-(6,7-dimethoxyquinolin-4-yloxy)phenyl]-N′-(4-fluorophenyl)malonamide]
32.8 nM | COc1cc2nccc(Oc3ccc(NC(=O)NC(=O)Cc4ccccc4)c(F)c3)c2cc1OC [Example 16, 1-[4-(6,7-dimethoxyquinolin-4-yloxy)-2-fluoro-phenyl]-3-phenylacetylurea]
242 nM | COc1cc2nccc(Oc3ccc(NC(=S)NC(=O)Cc4cccc(F)c4)cc3)c2cc1OC [Example 164, 1-[4-(6,7-dimethoxyquinolin-4-yloxy)phenyl]-3-[2-(3-fluorophenyl)acetyl]thiourea]
2530 nM | COc1cc2nccc(Oc3ccc(NC(=O)CC(=O)NC(C)c4ccccc4)cc3)c2cc1OC (stereo not shown) [Example 214, N-[4-(6,7-dimethoxyquinolin-4-yloxy)phenyl]-N′-(1-phenylethyl)malonamide]
394 nM | COc1cc2nccc(Oc3ccc(NC(=O)C(C)(C)C(=O)Nc4ccccc4)cc3)c2cc1OC [Example 228, N-[4-(6,7-dimethoxyquinolin-4-yloxy)phenyl]-2,2-dimethyl-N′-phenylmalonamide]
482 nM | COc1cc2nccc(Oc3ccc(NC(=S)NC(=O)COc4ccccc4)cc3Cl)c2cc1OC [Example 157, 1-[3-chloro-4-(6,7-dimethoxyquinolin-4-yloxy)phenyl]-3-(2-phenoxyacetyl)thiourea]
2430 nM | COC(=O)c1cccc(NC(=O)CC(=O)Nc2ccc(Oc3ccnc4cc(OC)c(OC)cc34)cc2)c1 [Example 213, methyl 3-{2-[4-(6,7-dimethoxyquinolin-4-yloxy)phenylcarbamoyl]acetylamino}benzoate]
264 nM | COc1cc2nccc(Oc3ccc(NC(=O)NC(=O)Cc4ccc(C)cc4)c(F)c3)c2cc1OC [Example 124, 1-[4-(6,7-dimethoxyquinolin-4-yloxy)-2-fluorophenyl]-3-(2-p-tolylacetyl)urea]
80 nM | COc1cc2nccc(Oc3ccc(NC(=O)NC(=O)Cc4ccccc4F)cc3F)c2cc1OC [Example 27, 1-[4-(6,7-dimethoxyquinolin-4-yloxy)-3-fluorophenyl]-3-[2-(2-fluorophenyl)acetyl]urea]
340 nM | COc1cc2nccc(Oc3ccc(NC(=O)NC(=O)Nc4ncc(C)cc4Br)cc3)c2cc1OC [Example 230, N-(3-bromo-5-methyl-2-pyridyl)-({[4-(6,7-dimethoxyquinolin-4-yloxy)anilino]carbonyl}amino)-methanamide]
256 nM | COc1cc2nccc(Oc3ccc(NC(=O)NC(=O)Nc4cc(C)on4)cc3)c2cc1OC [Example 232, N-(5-methyl-3-isoxazolyl)-({[4-(6,7-dimethoxyquinolin-4-yloxy)anilino]carbonyl}amino)-methanamide]
104 nM | COc1cc2nccc(Oc3ccc(NC(=O)NC(=O)Nc4cc(C)ccn4)cc3)c2cc1OC [Example 105, N-(4-methyl-2-pyridyl)-({[4-(6,7-dimethoxy-quinolin-4-yloxy)anilino]carbonyl}amino)methanamide]
